According to patent JP2015013808A, “G2/m期停止及び細胞死を誘導するベンゾヒドラジド誘導体” (Kyushu University NUC, priority 2011, dated 2013):
Where two headings read alike, the source gives them in different places.

Columns and labels:
[1] = tested on: human cancer cells [ヒトがん細胞]; assay: Growth inhibition / cytotoxicity in cancer cell lines (summary over lines); assay type: cell-based; conditions: for cancer cell selectivity of growth inhibition and cytotoxicity (in words): cancer cells versus normal fibroblasts; for anticancer activity / inhibitory effect on cancer cell lines (in words): 48 h, MTS
[2] = tested on: HFF2/T cells (normal human fibroblast line immortalized by introduction of human telomerase) [HFF2/T細胞(ヒトテロメラーゼの導入により不死化した正常ヒト線維芽細胞株)]; assay: MTS growth inhibition assay, HFF2/T normal fibroblasts; assay type: cell-based; conditions: 48 h
[3] = tested on: human cancer cells [ヒトがん細胞]; assay: FACS cell cycle analysis (summary, cell line not specified); assay type: cell-based
[4] = target: T1, Cdt1-geminin binding [Cdt1-geminin結合] (Homo sapiens, UniProt O75496+Q9H211); assay: In vitro Cdt1-geminin binding inhibition assay (modified ELISA)
T1 construct: made in house
T1 sequence (Q9H211 1-546): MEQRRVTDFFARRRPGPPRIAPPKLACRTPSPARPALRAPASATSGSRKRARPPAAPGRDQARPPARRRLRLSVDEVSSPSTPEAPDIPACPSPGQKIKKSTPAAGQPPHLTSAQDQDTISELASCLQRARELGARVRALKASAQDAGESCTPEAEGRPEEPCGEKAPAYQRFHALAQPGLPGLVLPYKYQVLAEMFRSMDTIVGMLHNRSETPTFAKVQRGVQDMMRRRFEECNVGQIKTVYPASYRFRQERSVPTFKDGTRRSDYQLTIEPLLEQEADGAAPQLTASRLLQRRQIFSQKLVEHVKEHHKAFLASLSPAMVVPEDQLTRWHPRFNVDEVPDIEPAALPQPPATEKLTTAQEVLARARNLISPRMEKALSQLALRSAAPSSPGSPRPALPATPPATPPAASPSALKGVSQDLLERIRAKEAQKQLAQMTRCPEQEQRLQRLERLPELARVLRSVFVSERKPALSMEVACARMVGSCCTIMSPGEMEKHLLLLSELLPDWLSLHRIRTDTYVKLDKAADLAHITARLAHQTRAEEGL
T1 sequence (O75496 1-209): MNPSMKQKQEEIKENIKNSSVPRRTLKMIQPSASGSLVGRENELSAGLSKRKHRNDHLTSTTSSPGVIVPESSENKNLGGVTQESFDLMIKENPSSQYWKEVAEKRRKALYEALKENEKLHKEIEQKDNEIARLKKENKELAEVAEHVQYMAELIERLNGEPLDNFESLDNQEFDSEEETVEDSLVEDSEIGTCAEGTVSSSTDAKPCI

[5] = tested on: HeLa cells (cervical cancer-derived cell line) [HeLa細胞(子宮頸癌由株細胞株)]; assay: MTS growth inhibition assay, HeLa; assay type: cell-based, human; conditions: 48 h
[6] = tested on: H1299 cells (lung cancer-derived cell line) [H1299細胞(肺がん由来細胞株)]; assay: MTS growth inhibition assay, H1299; assay type: cell-based, human; conditions: 48 h
[7] = tested on: T98G cells (glioblastoma-derived cell line) [T98G細胞(グリオブラストーマ由来細胞株)]; assay: MTS growth inhibition assay, T98G; assay type: cell-based, human; conditions: 48 h
T98G cells [T98G細胞] = assay: FACS cell cycle analysis, T98G; assay type: cell-based, human; conditions: 10 μM, 24 h
HFF2/T cells [HFF2/T細胞] = assay: FACS cell cycle analysis, HFF2/T normal fibroblasts; assay type: cell-based, human; conditions: 10 μM, 24 h

`CCn1c2ccccc2c2cc(/C=N/NC(=O)c3ccc(O)cc3O)ccc21` [(E)-N'-((9-エチル-9H-カルバゾール-3-イル)メチレン)-2,4-ジヒドロキシベンゾヒドラジド] was tested. Which “toxicity toward certain cancer cell lines (in words)” value ([1]; certain cancer cell lines, not specified) did it give?
The value was “ある種のがん細胞株に対する毒性が低下する”.

`CCn1c2ccccc2c2cc(C=O)ccc21` [Y-R1, N-ethylcarbazole-3-carboxaldehyde, reference compound] was tested. Which “cancer cell selectivity of growth inhibition and cytotoxicity (in words)” value [1] did it give?
The value was “そのような効果は認められなかった”.

Which results are given for `CCn1c2ccccc2c2cc(/C=N/NC(=O)c3ccccc3C)ccc21` [HND-007, (E)-N'-((9-Ethyl-9H-carbazol-3-yl)methylene)-2-methylbenzohydrazide]?
growth inhibition / toxicity toward normal fibroblasts or normal cells (in words) [2]: 正常線維芽細胞に対しても高い毒性を示す; growth inhibition / toxicity toward normal fibroblasts or normal cells (in words) ([2]; listed as 2- methyl体): 正常細胞に対しても高い毒性を示す場合がある; anticancer activity / inhibitory effect on cancer cell lines (in words) ([1]; listed as 2- methyl体): がん細胞株に対する抑制効果を高める; anticancer activity / inhibitory effect on cancer cell lines (in words) ([1]; listed as (E)-N'-((9-エチル-9H-カルバゾール-3-イル)メチレン)-2-メチルベンゾヒドラジド): 殺細胞性が高い; cancer cell selectivity of growth inhibition and cytotoxicity (in words) [1]: 選択性は低く; cell cycle phase inhibited [3]: 主にM期の進行阻害を行っているものと予想される

Which “anticancer activity / inhibitory effect on cancer cell lines (in words)” value [1] does the source give for `CCn1c2ccccc2c2cc(/C=N/NC(=O)c3cccc(I)c3)ccc21` [NP-13, (E)-N'-((9-Ethyl-9H-carbazol-3-yl)methylene)-3-iodobenzohydrazide] here?
Its value is “抗がん活性を失ってしまう”.

And the “anticancer activity / inhibitory effect on cancer cell lines (in words)” value ([1]; listed as 3-iodo体)?
Its value is “抗がん活性が比較的低く”.

`NNC(=O)c1ccccc1I` [Y-R2, 2-iodobenzohydrazide, reference compound] was tested. Which “cancer cell selectivity of growth inhibition and cytotoxicity (in words)” value [1] did it give?
Its value is “そのような効果は認められなかった”.

What does the source list for `CCn1c2ccccc2c2cc(/C=N/NC(=O)c3ccc(I)cc3)ccc21` [NP-14, (E)-N'-((9-Ethyl-9H-carbazol-3-yl)methylene)-4-iodobenzohydrazide]?
growth inhibition / toxicity toward normal fibroblasts or normal cells (in words) [2]: 正常線維芽細胞に対しても高い毒性を示す; growth inhibition / toxicity toward normal fibroblasts or normal cells (in words) ([2]; listed as 4-iodo体): 正常線維芽細胞に対しても高い毒性を示しうる; Cdt1-geminin binding inhibitory activity (in words) ([4]; listed as 4-iodo体): Cdt1-gemininの試験管内での結合を阻害しうる; Cdt1-geminin binding inhibitory activity (in words) ([4]; listed as 4-ヨード体): Cdt1-geminin結合阻害活性を持ち; IC50 ([4]; read-out: 50% binding inhibitory concentration, Cdt1-geminin): ~40 µM; anticancer activity / inhibitory effect on cancer cell lines (in words) [1]: NP-10と同等あるいはより高い抗がん活性を示す; anticancer activity / inhibitory effect on cancer cell lines (in words) ([1]; listed as 4-iodo体): 2-iodo体と同等、あるいはより高い抗がん活性を示す; anticancer activity / inhibitory effect on cancer cell lines (in words) ([1]; listed as 4-ヨード体): 抗がん活性も示した; cancer cell selectivity of growth inhibition and cytotoxicity (in words) [1]: がん細胞選択性は低下していた

What does the source list for `CCn1c2ccccc2c2cc(/C=N/NC(=O)c3ccccc3I)ccc21` [NP-10, (E)-N'-((9-Ethyl-9H-carbazol-3-yl)methylene)-2-iodobenzohydrazide]?
50% growth inhibitory concentration [5]: 数; 50% growth inhibitory concentration [6]: 数; 50% growth inhibitory concentration [7]: 数; concentration needed for 50% growth inhibition of HFF2/T relative to HeLa ([2]; HFF2/T versus HeLa): ~10 fold; growth inhibition / toxicity toward normal fibroblasts or normal cells (in words) [2]: 正常線維芽細胞に対する増殖抑制効果は低い; effect on cell cycle (T98G cells [T98G細胞]): 主にS期で停止; effect on cell cycle progression (HFF2/T cells [HFF2/T細胞]): 細胞周期進行に影響を与えなかった; effect on cell cycle progression (HFF2/T cells [HFF2/T細胞]; listed as 2-iodo体): 正常細胞の細胞周期の進行に影響を与えず; Cdt1-geminin binding inhibitory activity (in words) [4]: Cdt1-geminin結合の阻害活性は示さない; cancer cell selectivity of growth inhibition and cytotoxicity (in words) [1]: がん細胞選択的に細胞増殖を阻害し、細胞毒性を発揮した; cancer cell selectivity of growth inhibition and cytotoxicity (in words) ([1]; listed as 2-iodo体): がん細胞選択的に細胞増殖を阻害し、細胞毒性を発揮する; cancer cell selectivity of growth inhibition and cytotoxicity (in words) ([1]; listed as 2-ヨード体): がん細胞に対して選択的に毒性を発揮する; concentration that inhibits growth of human cancer cells ([1]; human cancer cells, lines not specified): 数; cell death ([1]; human cancer cells, several μM): 細胞死; cell cycle phase inhibited [3]: 主にM期の進行阻害; cell cycle phase inhibited ([3]; listed as 2-iodo体): 主にM期の進行阻害
